Data reported in the NIST ThermoML archive (doi:10.1016/j.jct.2007.03.004).
± gives the expanded uncertainty stated by the source.

Columns and labels:
[1] = Liquid; for mass density: 293.15 K, 101.33 kPa; for Normal boiling temperature: Distillation
[2] = refractive index (Na D-line) (dimensionless); conditions: 293.15 K; 101.33 kPa; Liquid; Standard Abbe refractometry

Row | Structure (SMILES) | mass density [1] [kg/m3] | Normal boiling temperature [1] [°C] | refractive index [2]
1 | CCOC(=O)CCC(=O)OCC [diethyl butanedioate] | 1040.22 ± 0.5 | 217.7 ± 0.2 | 1.42014 ± 0.0007
2 | CCOC(=O)CCCC(=O)OCC [diethyl glutarate] | 1022.04 ± 1.2 | 236.5 ± 0.2 | 1.42414 ± 0.00078
3 | CCC(=O)O [propanoic acid] | 988.04 ± 0.41 | 141.4 ± 0.2 | 1.3808 ± 0.0007
4 | CCOC(=O)CCCCC(=O)OCC [diethyl hexanedioate] | 1007.63 ± 0.41 | 245.2 ± 0.2 | 1.42725 ± 0.0007
